Earlier results on two molecules are cited in patent US5607940A (priority 1994, dated 1997).

The conditions of data set [1]: silver anode; listed as MHCl, hydrochloride.
For data set [2] the following is noted: in vivo.

As to `CN1CC[C@]23c4c5ccc(O)c4O[C@H]2[C@@H](O)C=C[C@H]3[C@H]1C5.Cl` [morphine hydrochloride], the utilization of morphine entry in data set [1] was “about 10%”.

As for `CN1CC[C@]23c4c5ccc(O)c4O[C@H]2[C@@H](O)C=C[C@H]3[C@H]1C5` [morphine], the “time to clinically effective blood levels” value in data set [2] is 15 to 20 min.
